Values of other authors, collected in patent US20200246404A1, “FORMULATIONS” (Molecular Infusions, LLC, priority 2017, published 2020).

Assays:
encephalitogenic T cells = encephalitogenic T cells after in vivo application to rats
human PBMCs = human PBMCs in vitro

Row | SMILES | release of IFN-γ and IL-17 (encephalitogenic T cells) | release of IFN-γ and IL-17 (human PBMCs) | duration of action for psychoactive effects (in vivo) | administered dose that reaches the systemic circulation (oral)
1 | CCOC(=O)C(C)=O [Ethyl pyruvate] | efficiently suppressed | efficiently suppressed |  | 
2 | CCCCCc1cc(O)c2c(c1)OC(C)(C)[C@@H]1CCC(C)=C[C@@H]21 [dronabinol, Synthetic Δ9-tetrahydrocannabinol] |  |  | 4 to 6 h | 10 to 20%
